Data from US20250243488A1, “METHODS OF MODULATING PROGRANULIN EXPRESSION USING ANTISENSE OLIGONUCLEOTIDES TARGETING REGULATORY RNAS” (Camp4 Therapeutics Corporation, priority 2022, published 2025).
Oligonucleotides are written 5' to 3', each unit as a sugar letter and its base; * is a phosphorothioate linkage, no mark a phosphodiester; rarer units and linkages stand in square brackets, end groups in braces. Plain capitals give the bases only. e = 2'-O-(2-methoxyethyl) (MOE); l = locked nucleic acid (LNA); [5mC] = 5-methylcytosine; d = 2'-deoxy (DNA)

System: GRN mRNA
Assay: GRN mRNA qPCR in SK-N-AS cells transfected with ASOs
Assay type: cell-based, human
Conditions: for 120 nM FC (GRN mRNA) / hGRN mRNA FC: 120 nM
Description: The best ASOs based on increased GRN mRNA fold-change were selected for further characterization in dose titration studies. Briefly, human neuroblastoma SK-N-AS cells were transfected with 20 to 160 nM of ASOs CO-3423, CO-3431, CO-3463, and CO-3503. A steric non-targeting control ASO (sNTC) was used as a control. Cells were collected for mRNA analysis after 48 hours and GRN mRNA quantified by qPCR. Housekeeping genes for normalization were GAPDH and PPIA, and mRNA fold change (FC) was normalized to sNTC.
36 additional ASOs were designed with different modifications and base walking around selected ASOs. The effect of increasing doses of these ASOs was assessed in the human neuroblastoma cell line SK-N-AS following transfection. Relative GRN mRNA levels in SK-N-AS cells after treatment was assessed 48-hours post-transfection, and data from exemplary ASOs is shown in FIGS. 5A and 5B.
Additional chemical modifications, including LNA, modifications were made to CO-3423. SK-N-AS cells were transfected with increasing concentrations of the LNA/PS modified ASOs and GRN mRNA quantified by qPCR. ASOs including different LNA modifications of CO-3423 had similar efficacy (i.e, similar increased GRN mRNA expression). GRN mRNA was normalized to the average fold-change of cells treated with two steric non-targeting control ASOs (CO-3772 and CO-1589 (sNTC1)).
The effect of ASO length on GRN gene expression modulation was also investigated. SK-N-AS cells were transfected with increasing concentrations of the longer ASOs and GRN mRNA quantified by qPCR. Increasing the length of CO-3423 increased the potency of the ASO, as shown in Table 4. mRNA was normalized to the average fold change of cells treated with two steric non-targeting control ASOs (CO-3772 and CO-1589 (sNTC1)).
To determine whether variations in the PO/PS internucleotide bond linkages impacted the ability of CO-3423 and CO-3431 to modulate gene expression, several modified ASOs based on these parent ASOs were prepared. SK-N-AS cells were transfected with increasing concentrations of the mixed PO/PS bond ASOs described in Tables 5 and 6, and GRN mRNA quantified by qPCR.
GRN mRNA fold-change after treatment with mixed PO/PS bond versions of CO-3423 is shown in Table 5. mRNA was normalized to the average fold change of cells treated with steric nontargeting controls (CO-3772, CO-1589 (sNTC1), and CO-1929 (sNTC3)).
GRN mRNA fold-change after treatment with mixed PO/PS bond versions of CO-3431 is shown in Table 6. mRNA was normalized as described above.
To further assess the effect of additional modifications on the ability of CO-3423 parent ASO to modulate GRN gene expression, additional LNA tiling and PO bond modifications were incorporated to CO-3423. SK-N-AS cells were transfected with increasing concentrations of the modified ASOs and GRN mRNA quantified by qPCR. CO-3423 was used for comparison. GRN mRNA was normalized to the average fold-change of cells treated with a steric non-targeting control ASO, CO-1589 (sNTC1).
To further assess the effect of modifications on the ability of CO-3463 parent ASO to modulate GRN gene expression, ASOs based on this ASOS incorporating additional LNA modifications were prepared and compared to […]. SK-N-AS cells were transfected with increasing concentrations of the ASOs and GRN mRNA quantified by qPCR. GRN mRNA was normalized to the average fold-change of cells treated with a steric non-targeting control ASO, CO-1589 (sNTC1).
68 additional ASOs were designed to target intergenic enhancers (eRNA). 48 hours post-transfection, the cells were collected for GRN mRNA analysis using qPCR. CO-1589, a steric nontargeting control ASO, was used as a control. GRN mRNA was normalized to cells treated with CO-1589.
The best hits from these ASOs were tested in a dose escalation study. Cells were incubated for 48 hours. Subsequently, the cells were collected for mRNA quantification via RT-qPCR. […]

[1] = Table 12, SK-N-AS, normalized to CO-1589
[2] = Table 9, SK-N-AS, 48 hours post-transfection, normalized to CO-1589
[3] = Table 13, SK-N-AS, normalized to CO-1589
[4] = Table 11, SK-N-AS, 48 hours, normalized to CO-1589
[5] = Table 4, SK-N-AS, normalized to CO-3772 and CO-1589 (sNTC1)
[6] = Table 10, SK-N-AS, 48 hours, normalized to CO-1589

Substance | 30 nM FC (GRN mRNA) [1] [FC] | 60 nM FC (GRN mRNA) [1] [FC] | 120 nM FC (GRN mRNA) [1] [FC] | further results
CO-6512: ASO based on parent ASO CO-3462 (antisense eT*eA*eGeGeAeGeA*eA*eT*e[5mC]*eG*e[5mC]eT*eT*eT*eG*eG*eG*eA*eG) | 1.3 | 1.8 | 1.3 | 
CO-4614: ASO designed to target intergenic enhancers (eRNA) (antisense eT*eG*eA*e[5mC]*eT*eA*eG*eA*eG*eA*eA*eA*e[5mC]*eG*e[5mC]*eT*eT*eA*eG*eA) |  |  |  | hGRN mRNA FC [2]: 1.2 FC
CO-6426: ASO based on parent ASOs CO-4363 and CO-4364 (eG*eG*eA*e[5mC]*eT*eT*eG*eG*eG*eA*eG*eT*eG*eG*eT*eG*eA*e[5mC]*eT*eG*eA*eA*e[5mC]*e[5mC]) |  |  |  | 30 nM FC (GRN mRNA) [3]: 0.8 FC; 60 nM FC (GRN mRNA) [3]: 1.5 FC; 120 nM FC (GRN mRNA) [3]: 1.3 FC
CO-6430: ASO designed to target an intragenic enhancer RNA (eRNA) (eT*eG*e[5mC]*eG*e[5mC]*eA*e[5mC]*eA*e[5mC]*eA*eG*eG*eT*eA*e[5mC]*e[5mC]*eA*eG*eA*eG) |  |  |  | hGRN mRNA FC [4]: 1.0 FC
CO-6442: ASO designed to target an intragenic enhancer RNA (eRNA) (e[5mC]*eT*eG*eG*eG*eA*eG*e[5mC]*e[5mC]*eT*eG*eG*e[5mC]*eT*eG*eA*eT*eG*e[5mC]*eA) |  |  |  | hGRN mRNA FC [4]: 1.2 FC
CO-6407: ASO based on parent ASO CO-3462 (antisense TAGGAGAATCGCTTTGGGAG; 2'-MOE, 5-methylC, mixed PO/PS; listed as RNA; modified_base 1..3: mod_base = OTHER; note = Phosphorothioate linkage; modified_base 6..15: mod_base = OTHER; modified_base 1..9: mod_base = OTHER; modified_base 18..20: mod_bas) | 1.1 | 1.2 | 1.6 | 
CO-4620: ASO designed to target intergenic enhancers (eRNA) (antisense eG*eT*e[5mC]*e[5mC]*eA*eG*e[5mC]*eA*e[5mC]*eG*e[5mC]*eT*e[5mC]*eT*e[5mC]*eA*eG*e[5mC]*eA*e[5mC]) |  |  |  | hGRN mRNA FC [2]: 1.0 FC
CO-6390: ASO based on parent ASO CO-3462 (antisense eT*eA*eG*eG*lA*dG*dA*dA*lT*d[5mC]*dG*d[5mC]*lT*dT*dT*eG*lG*eG*eA*eG) | 1.3 | 1.3 | 1.5 | 
CO-6523: ASO based on parent ASO CO-3462 (antisense eT*eA*eG*eG*eA*eG*eA*eA*eT*e[5mC]*eG*e[5mC]*eT*eTeTeGeGeG*eA*eG) | 2.9 | 1.4 | 1.3 | 
CO-4361: longer ASO based on CO-3423 (antisense eG*eA*e[5mC]*eT*eT*dG*dG*dG*dA*dG*dT*dG*dG*dT*dG*eA*e[5mC]*eT*eG*eA) |  |  |  | 30 nM FC (GRN mRNA) [5]: 1.1 FC; 60 nM FC (GRN mRNA) [5]: 1.3 FC; 120 nM FC (GRN mRNA) [5]: 1.6 FC
CO-6382: ASO based on parent ASO CO-3462 (antisense e[5mC]*eT*eA*eT*eG*eA*eT*e[5mC]*eA*eG*e[5mC]*eT*eT*eG*eG*eG*e[5mC]*eG*eA*e[5mC]) | 0.8 | 0.8 | 0.9 | 
CO-4592: ASO designed to target intergenic enhancers (eRNA) (antisense eG*eG*eT*e[5mC]*eA*e[5mC]*eA*eG*eA*eT*eT*eG*e[5mC]*eA*e[5mC]*eT*e[5mC]*eT*e[5mC]*e[5mC]) |  |  |  | hGRN mRNA FC [2]: 1.1 FC
CO-6391: ASO based on parent ASO CO-3462 (antisense eT*eA*eG*eG*eA*lG*eA*eA*lT*e[5mC]*eG*l[5mC]*eT*eT*lT*eG*eG*eG*eA*eG) | 1.3 | 1.0 | 1.6 | 
CO-6440: ASO designed to target an intragenic enhancer RNA (eRNA) (eG*eT*eT*e[5mC]*eA*eT*eG*e[5mC]*eT*eA*e[5mC]*e[5mC]*e[5mC]*e[5mC]*e[5mC]*eT*eA*eG*eT*eG) |  |  |  | hGRN mRNA FC [4]: 1.0 FC
CO-4606: ASO designed to target intergenic enhancers (eRNA) (antisense eA*e[5mC]*eG*eT*eG*eA*eA*eG*eA*eG*e[5mC]*e[5mC]*eG*eG*eA*eG*eA*eT*eT*e[5mC]) |  |  |  | hGRN mRNA FC [2]: 1.4 FC; 3.75 nM FC (GRN mRNA) (Table 10, SK-N-AS, 3.75 nM, 48 hours, normalized to CO-1589): 1.1 FC; 7.5 nM FC (GRN mRNA) (Table 10, SK-N-AS, 7.5 nM, 48 hours, normalized to CO-1589): 1.1 FC; 15 nM FC (GRN mRNA) (Table 10, SK-N-AS, 15 nM, 48 hours, normalized to CO-1589): 1.2 FC; 30 nM FC (GRN mRNA) [6]: 1.3 FC; 60 nM FC (GRN mRNA) [6]: 1.4 FC; 120 nM FC (GRN mRNA) [6]: 1.7 FC
CO-6514: ASO based on parent ASO CO-3462 (antisense eT*eA*eGeGeAeGeAeAeTe[5mC]eG*e[5mC]*eT*eT*eT*eG*eG*eG*eA*eG) | 1.4 | 1.9 | 1.8 | 
CO-6520: ASO based on parent ASO CO-3462 (antisense eT*eA*eG*eG*eA*eG*eA*eAeTe[5mC]eGe[5mC]eTeTeTeGeGeG*eA*eG) | 1.0 | 1.2 | 0.8 | 
CO-4646: ASO designed to target intergenic enhancers (eRNA) (antisense eG*eT*eG*eT*eG*eA*eA*eA*eT*eG*eA*eT*eG*eG*eT*eA*e[5mC]*e[5mC]*eA*eG) |  |  |  | hGRN mRNA FC [2]: 1.3 FC
CO-6447: ASO designed to target an intragenic enhancer RNA (eRNA) (eA*eT*eG*eG*eT*eT*e[5mC]*eT*eA*e[5mC]*e[5mC]*eT*eG*e[5mC]*eT*eG*eT*eG*eA*eG) |  |  |  | hGRN mRNA FC [4]: 1.2 FC
CO-4586: ASO designed to target intergenic enhancers (eRNA) (antisense eT*eG*eA*e[5mC]*eA*eA*eG*e[5mC]*eG*eG*eG*eA*eT*e[5mC]*eG*eG*eA*eG*eA*eG) |  |  |  | hGRN mRNA FC [2]: 0.9 FC
CO-8877: hGRN regRNA-targeting ASO with additional chemical modifications (antisense eT*eA*lG*e[5mC]*eA*dA*dA*d[5mC]*dT*d[5mC]*d[5mC]*d[5mC]*d[5mC]*d[5mC]*dA*eG*eG*l[5mC]*eG*e[5mC]) |  |  |  | GRN mRNA expression in SK-N-AS cells (3.75 to 90 nM, 48 hours post-transfection, normalized to sNTC (FIGS. 26A, 26B)): dose-dependent increase
